Data published in PubChem BioAssay (NCI).
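Following 48 hours of exposure in 96-well plates, responses at five concentrations were used to interpolate endpoints linearly. Here, GI50 denotes the concentration required for 50% inhibition of growth. The concentration for full growth arrest is given as TGI.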

Tests used:
Experiment in all cases: growth of human tumour cells (NCI), 48 h
SNB-75 CNS = system: SNB-75 CNS
MOLT-4 leukemia = system: MOLT-4 leukemia
SR leukemia = system: SR leukemia
SW-620 colon = system: SW-620 colon
SF-295 CNS = system: SF-295 CNS
SK-MEL-2 melanoma = system: SK-MEL-2 melanoma
NCI-H23 lung = system: NCI-H23 lung
HOP-92 NSCLC = system: HOP-92 NSCLC
DU-145 prostate = system: DU-145 prostate
A498 renal = system: A498 renal

`CN(C)C(=O)Nc1nc2cc(Cl)c(Cl)cc2[nH]1` was tested, and the GI50 (SNB-75 CNS) was 3.08 µM, the TGI (SNB-75 CNS) was > 35.2 µM and the GI50 (MOLT-4 leukemia) was 1.01 µM. The TGI (MOLT-4 leukemia) was > 70.4 µM, the GI50 (SR leukemia) was 0.222 µM and the GI50 (SW-620 colon) was 0.476 µM. The TGI (SW-620 colon) was > 100 µM, the GI50 (SF-295 CNS) was 0.603 µM and the TGI (SF-295 CNS) was 39.1 µM. The GI50 (SK-MEL-2 melanoma) was 4.55 µM, the TGI (SK-MEL-2 melanoma) was > 49.1 µM and the GI50 (NCI-H23 lung) was 2.07 µM. For the same compound, the TGI (NCI-H23 lung) was > 66.5 µM, the GI50 (HOP-92 NSCLC) was 16.1 µM and the TGI (HOP-92 NSCLC) was > 100 µM. It also gave a GI50 (DU-145 prostate) of 2.02 µM, a TGI (DU-145 prostate) of 24.9 µM and a GI50 (A498 renal) of 0.487 µM.
`CN(C)c1ccc(Nc2c3ccccc3nc3ccccc23)cc1` gave a GI50 (SNB-75 CNS) of 0.99 µM, a TGI (SNB-75 CNS) of 4.09 µM and a GI50 (MOLT-4 leukemia) of 0.357 µM. For the same compound, the TGI (MOLT-4 leukemia) was 5.18 µM, the GI50 (SR leukemia) was 0.297 µM and the TGI (SR leukemia) was 1.35 µM. It also gave a GI50 (SW-620 colon) of 0.665 µM, a TGI (SW-620 colon) of 3.67 µM and a GI50 (SF-295 CNS) of 0.579 µM. For the same compound, the TGI (SF-295 CNS) was 2.75 µM, the GI50 (SK-MEL-2 melanoma) was 0.821 µM and the TGI (SK-MEL-2 melanoma) was 2.83 µM. It also gave a GI50 (NCI-H23 lung) of 1.1 µM, a TGI (NCI-H23 lung) of 2.92 µM and a GI50 (HOP-92 NSCLC) of 0.622 µM. It also gave a TGI (HOP-92 NSCLC) of 3.84 µM, a GI50 (DU-145 prostate) of 1.05 µM and a TGI (DU-145 prostate) of 2.94 µM. For the same compound, the GI50 (A498 renal) was 0.353 µM and the TGI (A498 renal) was 4.45 µM.
With `CCCCCCCCCCCC1=NC(C)(C)CN1C(C)(C)CO` the GI50 (SNB-75 CNS) was 2.3 µM, the TGI (SNB-75 CNS) was 7.12 µM and the GI50 (MOLT-4 leukemia) was 2.79 µM. It also gave a TGI (MOLT-4 leukemia) of 8.66 µM, a GI50 (SR leukemia) of 3.07 µM and a TGI (SR leukemia) of 12.5 µM. The GI50 (SW-620 colon) was 1.67 µM, the TGI (SW-620 colon) was 3.08 µM and the GI50 (SF-295 CNS) was 2.04 µM. The TGI (SF-295 CNS) was 4.29 µM, the GI50 (SK-MEL-2 melanoma) was 2.12 µM and the TGI (SK-MEL-2 melanoma) was 3.88 µM. For the same compound, the GI50 (NCI-H23 lung) was 2.11 µM, the TGI (NCI-H23 lung) was 4.67 µM and the GI50 (HOP-92 NSCLC) was 2.31 µM. The TGI (HOP-92 NSCLC) was 7.49 µM, the GI50 (DU-145 prostate) was 3.12 µM and the TGI (DU-145 prostate) was 15.3 µM. It also gave a GI50 (A498 renal) of 5.76 µM and a TGI (A498 renal) of 20.8 µM.
For `Cc1ccc2nc3ccccc3c(NCc3ccc(Cl)cc3)c2c1`, the GI50 (SNB-75 CNS) was 6.77 µM, the TGI (SNB-75 CNS) was 13.3 µM and the GI50 (MOLT-4 leukemia) was 1.59 µM. It also gave a TGI (MOLT-4 leukemia) of 5.5 µM, a GI50 (SR leukemia) of 1.48 µM and a TGI (SR leukemia) of 3.84 µM. For the same compound, the GI50 (SW-620 colon) was 2.83 µM, the TGI (SW-620 colon) was 9.42 µM and the GI50 (SF-295 CNS) was 5.65 µM. For the same compound, the TGI (SF-295 CNS) was 11.7 µM, the GI50 (SK-MEL-2 melanoma) was 8.57 µM and the TGI (SK-MEL-2 melanoma) was 17.3 µM. The GI50 (NCI-H23 lung) was 5.55 µM, the TGI (NCI-H23 lung) was 12 µM and the GI50 (HOP-92 NSCLC) was 1.38 µM. For the same compound, the TGI (HOP-92 NSCLC) was 5.79 µM, the GI50 (DU-145 prostate) was 5.44 µM and the TGI (DU-145 prostate) was 11.5 µM. It also gave a GI50 (A498 renal) of 5.61 µM and a TGI (A498 renal) of 11.9 µM.
`O=C(CCN1CCCC1)Nc1ccc2c(NCc3ccccc3)c3ccccc3nc2c1` gave a GI50 (SNB-75 CNS) of 0.398 µM, a TGI (SNB-75 CNS) of 1.7 µM and a GI50 (MOLT-4 leukemia) of 0.364 µM. The TGI (MOLT-4 leukemia) was 2.03 µM, the GI50 (SR leukemia) was 0.261 µM and the TGI (SR leukemia) was 1.58 µM. For the same compound, the GI50 (SW-620 colon) was 0.316 µM, the TGI (SW-620 colon) was 1.44 µM and the GI50 (SF-295 CNS) was 0.494 µM. The TGI (SF-295 CNS) was 1.91 µM, the GI50 (SK-MEL-2 melanoma) was 0.598 µM and the TGI (SK-MEL-2 melanoma) was 2.08 µM. The GI50 (NCI-H23 lung) was 0.392 µM, the TGI (NCI-H23 lung) was 1.57 µM and the GI50 (HOP-92 NSCLC) was 0.348 µM. The TGI (HOP-92 NSCLC) was 2.19 µM, the GI50 (DU-145 prostate) was 0.394 µM and the TGI (DU-145 prostate) was 1.51 µM. For the same compound, the GI50 (A498 renal) was 0.406 µM and the TGI (A498 renal) was 1.9 µM.
`C[C@H]1[C@H](C)N1CC(O)Cn1ccnc1[N+](=O)[O-]` (stereo partly drawn) was tested, and the TGI (SNB-75 CNS) was > 100 µM, the TGI (MOLT-4 leukemia) was > 100 µM and the TGI (SR leukemia) was > 100 µM. The TGI (SW-620 colon) was > 100 µM, the TGI (SF-295 CNS) was > 100 µM and the TGI (SK-MEL-2 melanoma) was > 100 µM. For the same compound, the TGI (NCI-H23 lung) was > 100 µM, the TGI (HOP-92 NSCLC) was > 100 µM and the TGI (DU-145 prostate) was > 100 µM. For the same compound, the TGI (A498 renal) was > 100 µM.
In the case of `O=C(O)C(Cc1cnc[nH]1)N1C(=O)c2ccccc2C1=O` (stereo not drawn), the TGI (SNB-75 CNS) is reported as > 100 µM, the TGI (MOLT-4 leukemia) is reported as > 100 µM and the TGI (SR leukemia) is reported as > 100 µM. The TGI (SW-620 colon) was > 100 µM, the TGI (SF-295 CNS) was 98.5 µM and the TGI (SK-MEL-2 melanoma) was > 100 µM. For the same compound, the TGI (NCI-H23 lung) was > 100 µM, the TGI (HOP-92 NSCLC) was > 100 µM and the TGI (DU-145 prostate) was > 100 µM. For the same compound, the TGI (A498 renal) was > 100 µM.
In the case of `[2H]C([2H])([2H])NC(=O)c1nnc(NC(=O)C2CC2)cc1Nc1cccc(-c2ncn(C)n2)c1OC`, the GI50 (SNB-75 CNS) is reported as 15 µM, the TGI (SNB-75 CNS) is reported as > 100 µM and the GI50 (MOLT-4 leukemia) is reported as 0.934 µM. For the same compound, the TGI (MOLT-4 leukemia) was > 100 µM, the GI50 (SR leukemia) was 16.9 µM and the TGI (SR leukemia) was > 100 µM. For the same compound, the GI50 (SW-620 colon) was 41.6 µM, the TGI (SW-620 colon) was > 100 µM and the GI50 (SF-295 CNS) was 53.4 µM. For the same compound, the TGI (SF-295 CNS) was > 100 µM, the GI50 (SK-MEL-2 melanoma) was 10.6 µM and the TGI (SK-MEL-2 melanoma) was 83.8 µM. For the same compound, the GI50 (NCI-H23 lung) was 91.9 µM, the TGI (NCI-H23 lung) was > 100 µM and the GI50 (HOP-92 NSCLC) was 17.9 µM. The TGI (HOP-92 NSCLC) was > 100 µM, the GI50 (DU-145 prostate) was 14.9 µM and the TGI (DU-145 prostate) was > 100 µM. The GI50 (A498 renal) was 4.12 µM and the TGI (A498 renal) was > 100 µM.
`C/C(=C\c1ccn(-c2ccccc2N)n1)[C@@H]1C[C@@H]2O[C@]2(C)CCC[C@H](C)[C@H](O)[C@@H](C)C(=O)C(C)(C)[C@@H](O)CC(=O)O1` was tested, and the GI50 (SNB-75 CNS) was 0.00907 µM, the TGI (SNB-75 CNS) was 0.186 µM and the GI50 (MOLT-4 leukemia) was 0.0341 µM. The TGI (MOLT-4 leukemia) was > 42.2 µM, the GI50 (SR leukemia) was 0.0267 µM and the TGI (SR leukemia) was > 50 µM. The GI50 (SW-620 colon) was 0.0245 µM, the TGI (SW-620 colon) was > 50 µM and the GI50 (SF-295 CNS) was 0.0797 µM. For the same compound, the TGI (SF-295 CNS) was > 50 µM, the GI50 (SK-MEL-2 melanoma) was 0.0819 µM and the TGI (SK-MEL-2 melanoma) was > 50 µM. The GI50 (NCI-H23 lung) was 0.0663 µM, the TGI (NCI-H23 lung) was > 50 µM and the GI50 (HOP-92 NSCLC) was 0.146 µM. The TGI (HOP-92 NSCLC) was > 50 µM, the GI50 (DU-145 prostate) was 0.0564 µM and the TGI (DU-145 prostate) was 0.402 µM. For the same compound, the GI50 (A498 renal) was 0.0372 µM and the TGI (A498 renal) was 0.669 µM.
